One experiment relates to MMP-13. Briefly: MMP-13 in synovium by ELISA, rabbit surgically induced knee arthritis. It counts as in vivo. Conditions: vs untreated control, not statistically significant. From the text: (§1) The study was approved by the Institutional Animal Care and Use Committee (IACUC) of Thomas D. Morris, Inc. 28 New Zeeland White rabbits were selected for the study. Six such were randomly assigned to one of four groups; prophylactic cyanidin-3-glycoside (C3G)(referred to figures as Cl 1-42), prophylactic protocatechuic acid (PCA)(referred to in figures as PCA 1-42), therapeutic C3G (referred to in figures as Cl 42-70), and therapeutic PCA (referred to in figures as PCA 42-70). There were four controls, two each to the prophylactic and therapeutic groups.
(§2) The prophylactic groups were given PROC3G™ by Chromadex™ at a dose of 30 mg/kg of body weight of either C3G or PCA by mouth, 7 times per week for 42 days. The therapeutic groups' treatment was initiated on day 42 with a daily dose of PROC3G™ by Chromadex™ 7 times per week for 4 weeks. The dose of 30 mg of cyanidin-3-glucoside per kg of body weight calculates to be 0.177 millimoles per kg body weight. The dose of PCA was the same in terms of millimoles per kg body weight.
(§3) The experimental rabbits underwent surgery with an intent to create a severe degenerative arthritis by cutting the medial collateral ligament, the anterior cruciate ligament and removing the medial meniscus. A partial thickness laceration was made longitudinally on the lateral femoral condyle for future assessment of potential for repair. The surgery was performed by two licensed veterinarians. One surgeon was very experienced. The other surgeon was a recent graduate.
(§4) At necropsy, the synovial fluid was harvested percutaneously and upon arthrotomy. The synovium was harvested from posterior compartment. The patella and adjacent synovium was procured as a separate specimen as was the medial and lateral condyle.
(§5) The synovial fluid and half of the synovium was frozen and sent to BioBoston Laboratory for chemical analysis. The other half of the synovium and bone was sent to McClinchery Histology in Stockbridge, Mich. for histological preparation and staining. Patellar slides were sent to BioBoston Contract Laboratories for histochemical staining and ICRS grading. Sample slides were examined for Lubricin at Myron Spector laboratory.
Synovial Tissue (Synovium)—Detected by ELISA
A general note: ELISA stands for enzyme-linked immunosorbent assay.

Another experiment relates to human synovial explants. Conditions: PCA directly applied; cited from earlier work.
The test system of another experiment is MRSA and Pseudomonas. Conditions: tape-stripped rodent backs contaminated with MRSA and Pseudomonas; cited from earlier work.
The test system of a further experiment is C-reactive protein (CRP). In words: C-reactive protein (CRP) in plasma after knee surgery. The format is in vivo, rabbit. How it is done:
C-reactive protein (CRP) is a protein found in the blood plasma, the levels of which rise in response to inflammation (i.e., C-reactive protein is an acute-phase protein). Its physiological role is to bind to phosphocholine expressed on the surface of dead or dying cells (and some types of bacteria) in order to activate the complement system via the C1Q complex. CRP rises within two hours of the onset of inflammation, up to a 50,000-fold, and peaks at 48 hours. […] CRP is thus a screen for inflammation.
Knee surgery was performed to create a severe irreparable degenerative knee joint, which in turn elevated the CRP in the plasma to average of […]. A historical normal amount of CRP is 3.15 micrograms/mL. See Sun H, et al., Am J Pathol. October 2005; 167(4): 1139-1148. Rabbit CRP levels are close to the mean values of healthy middle-aged humans (2.82 mg/L) reported in the literature. See Ockene I S, et al., Clin Chem. 2001; 47:444-450.
The controls in the study were animals that had surgery and received no treatment. The prophylaxis test groups had the surgery and received 6 weeks of oral C-3-G or PCA 7 times per week as described in example 1. The therapeutic treatment group had surgery, received no treatment for 41 days and then at day 42 received oral C-3-G or PCA 7 times per week as described in example 1.

The test system of the next experiment is MMP-3. In words: MMP-3 expression in cartilage, histochemical staining and scoring, rabbit arthritis model. It counts as in vivo.
Description: as §1, §2, §3, §4, §5
MMP3 is known as matrix metallopeptidase 3, or stromelysin 1 or progelatinase. Proteins of the matrix metalloproteinase (MMP) family are involved in the breakdown of 20 extracellular matrix in normal physiological processes, such as embryonic development, reproduction, and tissue remodeling, as well as in disease processes, such as arthritis and metastasis. […] See FIG. 2C. • Synovial Tissue (Synovium)—Detected by ELISA • MMP-3 levels were reduced in all four groups. See FIG. 9B. • Synovial Tissue (Synovium)—Gene Expression Level Detected by Real-Time PCR • MMP-3 gene expression was decreased in all groups. See FIG. 13A. • Histochemical Scoring Analysis

As for `O=C(O)c1ccc(O)c(O)c1` [PCA, Protocatechuic acid (3,4-dihydroxybenzoic acid)], the “MMP-13 levels in synovium” value in the experiment with MMP-13 (prophylactic groups, oral 7 times per week days 1-42 (C3G 30 mg/kg, PCA 26.4 mg/kg)) is “very slightly decreased”; in the experiment on MMP-13 (therapeutic groups, oral 7 times per week days 42-70 (C3G 30 mg/kg, PCA 26.4 mg/kg)), “increased slightly”. In the experiment with human synovial explants, the “IGF-1 in human synovial explants” value was “increased”. In addition, the “collagen layer in the dermis” value with MRSA and Pseudomonas was “production of collagen layer in the dermis”. Also, the “re-epithelialization of the skin wound” value with MRSA and Pseudomonas is “re-epithelialization of the wound”. The “time to disinfect the wound” value with MRSA and Pseudomonas was 2 days. In addition, the “CRP, an indicator of inflammation” value in the experiment with C-reactive protein (CRP) (given by oral route immediately after injury) is reported as “kept to normal levels”. Further, the “plasma CRP level” value was determined as 3.6 micrograms/mL in the experiment with C-reactive protein (CRP) (prophylaxis test group, 6 weeks oral treatment from surgery, untreated control at 42 days 8.8 mg/mL) and 43 mg/mL in the experiment on C-reactive protein (CRP) (therapeutic group, no treatment for 6 weeks after surgery, then 4 weeks oral treatment). Also, the “histochemical staining for the presence of MMP-3 in cartilage” value is listed as “no staining” in the experiment on MMP-3 (prophylactic groups, oral days 1-42) and “no staining” in the experiment with MMP-3 (therapeutic groups, oral days 42-70). The “MMP-3 expression in cartilage” value with MMP-3 (prophylactic groups, oral days 1-42, vs control) is “reduced”; with MMP-3 (therapeutic groups, oral days 42-70, vs control), “reduced”.

Values taken from US11925656B2, “Biological total joint replacement” (priority 2014, dated 2024).
